From US10844077B2, “Thiazolyl-containing compounds for treating proliferative diseases” (Dana-Farber Cancer Institute, Inc., priority 2014, dated 2020)
Values joined by “and” are separate entries in the source; they are usually repeats but may differ in a detail not shown here. Equal entries are not always repeated.

What was measured:
Assay in all cases: KINATIV assay of compounds I-3 and I-9, lysate directly labeled with ATP-biotin probe (no GF)
Format in all cases: cell-based
kinases in BCWM.1 cells [1] = molecular target: kinases in BCWM.1 cells (Homo sapiens, UniProt Q13572); conditions: ITPK1; ATP; 1 μM; no GF
Procedure: (§1) The cells were harvested and lysed. […] Bound kinases were identified and quantitated by ACTIVX as described in Patricelli et al., Biochemistry, 2007, 46(2): 350-358. The compounds were tested in duplicates against duplicate or quadruplicate control samples.

kinases in BCWM.1 cells [2] = molecular target: kinases in BCWM.1 cells (Homo sapiens, UniProt P49841); conditions: GSK3B; Lys2; 1 μM; no GF
Procedure: as §1

kinases in BCWM.1 cells [3] = molecular target: kinases in BCWM.1 cells (Homo sapiens, UniProt O00418); conditions: eEF2K; ATP; 1 μM; no GF
Procedure: as §1

kinases in BCWM.1 cells [4] = molecular target: kinases in BCWM.1 cells (Homo sapiens, UniProt P09769); conditions: FGR; Activation Loop; 1 μM; no GF
Procedure: as §1

kinases in BCWM.1 cells [5] = molecular target: kinases in BCWM.1 cells (Homo sapiens, UniProt P27361); conditions: Erk1; Lys2; 1 μM; no GF
Procedure: as §1

kinases in BCWM.1 cells [6] = molecular target: kinases in BCWM.1 cells (Homo sapiens, UniProt Q96RR4); conditions: CaMKK2; Lys2; 1 μM; no GF
Procedure: as §1

kinases in BCWM.1 cells [7] = molecular target: kinases in BCWM.1 cells (Homo sapiens, UniProt P42685); conditions: FRK; Activation Loop; 1 μM; no GF
Procedure: as §1

kinases in BCWM.1 cells [8] = molecular target: kinases in BCWM.1 cells (Homo sapiens, UniProt Q9Y616); conditions: IRAK3; Lys1; 1 μM; no GF
Procedure: as §1

kinases in BCWM.1 cells [9] = molecular target: kinases in BCWM.1 cells (Homo sapiens, UniProt Q04759); conditions: PKCt; ATP Loop; 1 μM, 90 min; no GF
Procedure: as §1

kinases in BCWM.1 cells [10] = molecular target: kinases in BCWM.1 cells (Homo sapiens, UniProt P24941); conditions: CDK2; Lys2; 1 μM; no GF
Procedure: as §1

kinases in BCWM.1 cells [11] = molecular target: kinases in BCWM.1 cells (Homo sapiens, UniProt Q13315); conditions: ATM; ATP; 1 μM; no GF
Procedure: as §1

kinases in BCWM.1 cells [12] = molecular target: kinases in BCWM.1 cells (Homo sapiens, UniProt Q99755); conditions: PIP5K1A; ATP; 1 μM, 90 min; no GF
Procedure: as §1

kinases in BCWM.1 cells [13] = molecular target: kinases in BCWM.1 cells (Homo sapiens, UniProt P52333); conditions: JAK3 domain2; Activation Loop; 1 μM; no GF
Procedure: as §1

kinases in BCWM.1 cells [14] = molecular target: kinases in BCWM.1 cells (Homo sapiens, UniProt P11802); conditions: CDK4; Lys2; 1 μM; no GF
Procedure: as §1

kinases in BCWM.1 cells [15] = molecular target: kinases in BCWM.1 cells (Homo sapiens, UniProt Q16659); conditions: Erk3; Lys2; 1 μM; no GF
Procedure: as §1

kinases in BCWM.1 cells [16] = molecular target: kinases in BCWM.1 cells (Homo sapiens, UniProt Q96GX5); conditions: MASTL, 1 μM, no GF
Procedure: as §1

kinases in BCWM.1 cells [17] = molecular target: kinases in BCWM.1 cells (Homo sapiens, UniProt P28482); conditions: Erk2; Lys2; 1 μM; no GF
Procedure: as §1

kinases in BCWM.1 cells [18] = molecular target: kinases in BCWM.1 cells (Homo sapiens, UniProt Q13233); conditions: MAP3K1; Lys2; 1 μM; no GF
Procedure: as §1

kinases in BCWM.1 cells [19] = molecular target: kinases in BCWM.1 cells (Homo sapiens, UniProt P06493); conditions: CDC2; Protein Kinase Domain; 1 μM; no GF
Procedure: as §1

kinases in BCWM.1 cells [20] = molecular target: kinases in BCWM.1 cells (Homo sapiens, UniProt Q13418); conditions: ILK; Protein Kinase Domain; 1 μM; no GF
Procedure: as §1

kinases in BCWM.1 cells [21] = molecular target: kinases in BCWM.1 cells (Homo sapiens, UniProt P45985); conditions: MAP2K4; Lys2; 1 μM; no GF
Procedure: as §1

kinases in BCWM.1 cells [22] = molecular target: kinases in BCWM.1 cells (Homo sapiens, UniProt P17612); conditions: PKACa; Lys2; 1 μM, 90 min; no GF
Procedure: as §1

kinases in BCWM.1 cells [23] = molecular target: kinases in BCWM.1 cells (Homo sapiens, UniProt Q02156); conditions: PKCe; Lys2; 1 μM, 90 min; no GF
Procedure: as §1

kinases in BCWM.1 cells [24] = molecular target: kinases in BCWM.1 cells (Homo sapiens, UniProt Q16513); conditions: PKN2; Lys2; 1 μM, 90 min; no GF
Procedure: as §1

kinases in BCWM.1 cells [25] = molecular target: kinases in BCWM.1 cells (Homo sapiens, UniProt Q9C0K7); conditions: STLK6; Lys1; 1 μM, 90 min; no GF
Procedure: as §1

kinases in BCWM.1 cells [26] = molecular target: kinases in BCWM.1 cells (Homo sapiens, UniProt P41743); conditions: PKCi; Lys1; 1 μM, 90 min; no GF
Procedure: as §1

kinases in BCWM.1 cells [27] = molecular target: kinases in BCWM.1 cells (Homo sapiens, UniProt Q8TCG2); conditions: PI4K2B; ATP; 1 μM, 90 min; no GF
Procedure: as §1

kinases in BCWM.1 cells [28] = molecular target: kinases in BCWM.1 cells (Homo sapiens, UniProt Q9Y2K2); conditions: QSK; Lys2; 1 μM, 90 min; no GF
Procedure: as §1

kinases in BCWM.1 cells [29] = molecular target: kinases in BCWM.1 cells (Homo sapiens, UniProt Q86UX6); conditions: YANK3; Lys2; 1 μM, 90 min; no GF
Procedure: as §1

Chain of kinases in BCWM.1 cells (Homo sapiens, UniProt P11802) (P11802 2-303 limits assumed): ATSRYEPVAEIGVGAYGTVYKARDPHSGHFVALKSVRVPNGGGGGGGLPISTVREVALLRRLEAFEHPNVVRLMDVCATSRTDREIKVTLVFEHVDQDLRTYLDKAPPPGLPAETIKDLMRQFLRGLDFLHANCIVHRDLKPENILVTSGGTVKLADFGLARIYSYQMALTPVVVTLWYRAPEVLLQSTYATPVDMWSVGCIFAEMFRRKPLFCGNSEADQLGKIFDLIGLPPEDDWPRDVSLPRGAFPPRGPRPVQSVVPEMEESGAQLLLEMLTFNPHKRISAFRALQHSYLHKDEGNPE
Chain of kinases in BCWM.1 cells (Homo sapiens, UniProt Q13233) (Q13233 2-1512 limits assumed): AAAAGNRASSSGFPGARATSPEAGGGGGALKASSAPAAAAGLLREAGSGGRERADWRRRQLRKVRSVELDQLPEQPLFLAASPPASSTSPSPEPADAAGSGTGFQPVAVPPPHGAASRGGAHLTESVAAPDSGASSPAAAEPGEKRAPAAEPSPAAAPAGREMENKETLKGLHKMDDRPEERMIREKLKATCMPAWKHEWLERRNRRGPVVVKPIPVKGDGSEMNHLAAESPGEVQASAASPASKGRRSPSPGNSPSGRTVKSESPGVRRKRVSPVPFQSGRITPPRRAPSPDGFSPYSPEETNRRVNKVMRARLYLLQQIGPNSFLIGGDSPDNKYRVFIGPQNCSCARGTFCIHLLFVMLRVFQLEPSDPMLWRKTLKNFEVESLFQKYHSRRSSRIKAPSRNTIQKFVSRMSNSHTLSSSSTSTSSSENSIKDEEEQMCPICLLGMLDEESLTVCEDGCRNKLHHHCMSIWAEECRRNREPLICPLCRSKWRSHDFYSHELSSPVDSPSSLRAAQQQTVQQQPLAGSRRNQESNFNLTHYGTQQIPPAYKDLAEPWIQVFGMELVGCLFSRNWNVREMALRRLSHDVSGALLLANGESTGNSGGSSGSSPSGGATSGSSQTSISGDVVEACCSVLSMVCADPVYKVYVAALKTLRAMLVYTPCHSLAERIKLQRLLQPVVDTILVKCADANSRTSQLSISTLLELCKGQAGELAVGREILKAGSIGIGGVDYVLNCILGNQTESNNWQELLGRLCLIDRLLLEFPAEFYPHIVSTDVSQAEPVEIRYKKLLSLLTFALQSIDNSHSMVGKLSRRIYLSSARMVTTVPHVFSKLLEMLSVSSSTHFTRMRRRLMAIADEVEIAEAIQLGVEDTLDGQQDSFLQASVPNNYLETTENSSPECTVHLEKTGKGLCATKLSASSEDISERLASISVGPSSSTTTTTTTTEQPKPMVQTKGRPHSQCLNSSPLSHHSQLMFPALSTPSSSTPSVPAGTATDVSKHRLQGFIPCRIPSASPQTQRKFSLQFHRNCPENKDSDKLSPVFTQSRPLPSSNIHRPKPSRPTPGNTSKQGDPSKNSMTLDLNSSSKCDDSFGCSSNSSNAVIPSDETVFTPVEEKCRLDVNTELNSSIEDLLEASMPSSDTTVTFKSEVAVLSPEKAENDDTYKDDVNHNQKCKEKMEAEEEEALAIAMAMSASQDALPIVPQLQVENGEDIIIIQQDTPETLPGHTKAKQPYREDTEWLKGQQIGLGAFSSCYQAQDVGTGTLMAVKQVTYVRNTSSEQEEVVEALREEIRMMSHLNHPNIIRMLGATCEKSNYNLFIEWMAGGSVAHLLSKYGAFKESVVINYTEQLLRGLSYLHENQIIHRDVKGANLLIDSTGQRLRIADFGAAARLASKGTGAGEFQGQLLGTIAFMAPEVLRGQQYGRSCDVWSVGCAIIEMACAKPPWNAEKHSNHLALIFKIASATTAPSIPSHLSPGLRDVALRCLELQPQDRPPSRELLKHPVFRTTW
Chain of kinases in BCWM.1 cells (Homo sapiens, UniProt O00418) (O00418 2-725 limits assumed): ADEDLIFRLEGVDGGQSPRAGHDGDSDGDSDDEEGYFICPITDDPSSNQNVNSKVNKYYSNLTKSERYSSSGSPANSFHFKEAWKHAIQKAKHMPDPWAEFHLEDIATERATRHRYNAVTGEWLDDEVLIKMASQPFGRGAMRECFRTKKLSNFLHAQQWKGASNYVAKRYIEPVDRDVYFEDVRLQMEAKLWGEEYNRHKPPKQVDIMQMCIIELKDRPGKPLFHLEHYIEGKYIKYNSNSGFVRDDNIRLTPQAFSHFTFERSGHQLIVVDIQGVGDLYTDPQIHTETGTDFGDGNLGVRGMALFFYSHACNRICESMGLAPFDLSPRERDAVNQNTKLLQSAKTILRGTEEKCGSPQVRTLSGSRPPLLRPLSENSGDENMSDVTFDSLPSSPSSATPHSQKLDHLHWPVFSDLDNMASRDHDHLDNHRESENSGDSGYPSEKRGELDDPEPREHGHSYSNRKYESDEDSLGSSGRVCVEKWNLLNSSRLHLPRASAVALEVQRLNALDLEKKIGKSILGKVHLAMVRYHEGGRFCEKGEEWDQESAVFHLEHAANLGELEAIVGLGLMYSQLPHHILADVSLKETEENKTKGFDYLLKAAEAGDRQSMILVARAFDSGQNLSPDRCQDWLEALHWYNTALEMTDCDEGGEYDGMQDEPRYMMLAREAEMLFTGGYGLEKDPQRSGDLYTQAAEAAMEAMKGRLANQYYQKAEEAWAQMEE
Chain of kinases in BCWM.1 cells (Homo sapiens, UniProt P45985) (P45985 2-399 limits assumed): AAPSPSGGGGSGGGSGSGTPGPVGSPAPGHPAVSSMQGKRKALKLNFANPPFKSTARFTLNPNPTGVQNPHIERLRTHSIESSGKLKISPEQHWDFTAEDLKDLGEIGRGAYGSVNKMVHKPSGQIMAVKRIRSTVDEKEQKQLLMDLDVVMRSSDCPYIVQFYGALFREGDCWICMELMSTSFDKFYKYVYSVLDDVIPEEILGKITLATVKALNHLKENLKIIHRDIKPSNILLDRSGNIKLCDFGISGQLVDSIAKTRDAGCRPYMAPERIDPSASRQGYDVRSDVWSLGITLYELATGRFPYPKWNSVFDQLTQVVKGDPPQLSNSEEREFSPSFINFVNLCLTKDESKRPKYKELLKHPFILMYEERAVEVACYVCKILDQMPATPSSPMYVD
Chain of kinases in BCWM.1 cells (Homo sapiens, UniProt Q96RR4) (Q96RR4 2-588 limits assumed): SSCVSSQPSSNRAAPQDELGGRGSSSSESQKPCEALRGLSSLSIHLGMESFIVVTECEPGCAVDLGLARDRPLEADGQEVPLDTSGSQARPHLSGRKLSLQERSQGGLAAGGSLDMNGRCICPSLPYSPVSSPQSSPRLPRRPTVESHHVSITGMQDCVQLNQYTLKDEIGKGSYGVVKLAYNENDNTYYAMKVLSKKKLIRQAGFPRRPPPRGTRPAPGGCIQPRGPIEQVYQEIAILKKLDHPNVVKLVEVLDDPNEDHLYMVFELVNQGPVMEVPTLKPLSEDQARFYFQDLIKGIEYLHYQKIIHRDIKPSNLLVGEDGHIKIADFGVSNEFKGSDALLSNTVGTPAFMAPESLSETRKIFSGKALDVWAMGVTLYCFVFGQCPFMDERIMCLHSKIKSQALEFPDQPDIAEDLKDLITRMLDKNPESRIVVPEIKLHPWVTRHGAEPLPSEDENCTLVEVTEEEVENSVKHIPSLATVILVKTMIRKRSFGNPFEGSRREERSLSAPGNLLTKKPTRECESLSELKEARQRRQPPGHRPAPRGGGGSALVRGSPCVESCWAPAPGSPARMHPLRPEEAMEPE
Chain of kinases in BCWM.1 cells (Homo sapiens, UniProt P09769) (P09769 2-529 limits assumed): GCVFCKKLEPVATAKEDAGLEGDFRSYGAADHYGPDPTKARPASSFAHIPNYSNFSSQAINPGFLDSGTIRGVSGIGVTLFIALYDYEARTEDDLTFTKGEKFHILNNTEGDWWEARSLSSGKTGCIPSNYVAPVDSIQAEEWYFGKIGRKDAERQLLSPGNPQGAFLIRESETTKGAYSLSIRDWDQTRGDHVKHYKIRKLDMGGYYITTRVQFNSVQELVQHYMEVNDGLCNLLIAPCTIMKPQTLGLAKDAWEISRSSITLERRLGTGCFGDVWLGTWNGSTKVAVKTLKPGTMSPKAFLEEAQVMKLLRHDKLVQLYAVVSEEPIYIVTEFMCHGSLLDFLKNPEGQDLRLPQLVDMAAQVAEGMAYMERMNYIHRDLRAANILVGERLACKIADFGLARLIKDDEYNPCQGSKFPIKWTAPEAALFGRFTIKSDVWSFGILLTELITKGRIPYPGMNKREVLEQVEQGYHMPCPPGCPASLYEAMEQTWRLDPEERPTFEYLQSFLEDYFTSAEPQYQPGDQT
Chain of kinases in BCWM.1 cells (Homo sapiens, UniProt P27361) (P27361 2-379 limits assumed): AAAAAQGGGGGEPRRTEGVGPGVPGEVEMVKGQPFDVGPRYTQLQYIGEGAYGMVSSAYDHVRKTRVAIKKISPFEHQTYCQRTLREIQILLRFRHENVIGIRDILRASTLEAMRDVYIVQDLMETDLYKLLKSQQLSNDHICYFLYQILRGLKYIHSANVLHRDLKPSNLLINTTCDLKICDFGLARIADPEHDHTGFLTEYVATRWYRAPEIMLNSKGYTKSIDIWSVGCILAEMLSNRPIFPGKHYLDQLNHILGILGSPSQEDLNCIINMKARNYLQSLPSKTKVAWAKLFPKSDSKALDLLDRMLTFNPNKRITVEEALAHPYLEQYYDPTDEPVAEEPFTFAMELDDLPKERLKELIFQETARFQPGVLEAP
Chain of kinases in BCWM.1 cells (Homo sapiens, UniProt P28482) (P28482 2-360 limits assumed): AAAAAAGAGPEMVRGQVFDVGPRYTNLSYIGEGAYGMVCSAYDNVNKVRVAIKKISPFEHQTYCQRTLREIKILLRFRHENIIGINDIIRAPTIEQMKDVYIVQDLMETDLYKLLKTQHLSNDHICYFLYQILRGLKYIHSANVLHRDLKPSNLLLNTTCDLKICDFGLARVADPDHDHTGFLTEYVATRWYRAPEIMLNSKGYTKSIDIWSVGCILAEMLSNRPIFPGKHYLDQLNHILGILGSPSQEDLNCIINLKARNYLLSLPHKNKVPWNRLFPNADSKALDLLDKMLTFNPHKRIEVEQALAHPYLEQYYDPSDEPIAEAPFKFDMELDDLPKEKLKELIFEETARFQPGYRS

C=CC(=O)N1CC[C@H](Nc2nccc(Nc3ncc(C(=O)Nc4c(C)cccc4C)s3)n2)C1 [Example I-3]
% change of MS signal compared to control sample (kinases in BCWM.1 cells [1]): 8.5% and 1.5% | % change of MS signal compared to control sample (kinases in BCWM.1 cells [2]): 9.4% and −0.5% | % change of MS signal compared to control sample (kinases in BCWM.1 cells [3]): −18.9% and −27.8% | % change of MS signal compared to control sample (kinases in BCWM.1 cells [4]): 95.7% and 95.4% | % change of MS signal compared to control sample (kinases in BCWM.1 cells [5]): −0.6% and 1.5% | % change of MS signal compared to control sample (kinases in BCWM.1 cells [6]): −2.1% and 1.7% | % change of MS signal compared to control sample (kinases in BCWM.1 cells [7]): 92.4% and 95.8% | % change of MS signal compared to control sample (kinases in BCWM.1 cells [8]): −11.3% and −5.5% | % change of MS signal compared to control sample (kinases in BCWM.1 cells [9]): −5.2% | % change of MS signal compared to control sample (kinases in BCWM.1 cells [10]): 3.6% and 1.2% | % change of MS signal compared to control sample (kinases in BCWM.1 cells [11]): 20.7% and 19.5% | % change of MS signal compared to control sample (kinases in BCWM.1 cells [12]): 26.2% | % change of MS signal compared to control sample (kinases in BCWM.1 cells [13]): −1.5% and −0.6% | % change of MS signal compared to control sample (kinases in BCWM.1 cells [14]): 10.3% and 4.8% | % change of MS signal compared to control sample (kinases in BCWM.1 cells [15]): 23.2% and 23.8% | % change of MS signal compared to control sample (kinases in BCWM.1 cells [16]; ATP Loop): 5.3% and 6% | % change of MS signal compared to control sample (kinases in BCWM.1 cells [16]; Lys1): 16.4% and 9.8% | % change of MS signal compared to control sample (kinases in BCWM.1 cells [17]): −1.8% and 1.1% | % change of MS signal compared to control sample (kinases in BCWM.1 cells [18]): 22.5% and 18.8% | % change of MS signal compared to control sample (kinases in BCWM.1 cells [19]): −0.7% and −4.3% | % change of MS signal compared to control sample (kinases in BCWM.1 cells [20]): 3.6% and 9.7% | % change of MS signal compared to control sample (kinases in BCWM.1 cells [21]): −3.9% and 1.1%

CCC(=O)N1CC[C@H](Nc2nccc(Nc3ncc(C(=O)Nc4c(C)cccc4C)s3)n2)C1 [Example I-9]
% change of MS signal compared to control sample (kinases in BCWM.1 cells [22]): −9.8% | % change of MS signal compared to control sample (kinases in BCWM.1 cells [23]): −38.2% | % change of MS signal compared to control sample (kinases in BCWM.1 cells [24]): −4.5% | % change of MS signal compared to control sample (kinases in BCWM.1 cells [25]): 7.2% | % change of MS signal compared to control sample (kinases in BCWM.1 cells [26]): 16.5% | % change of MS signal compared to control sample (kinases in BCWM.1 cells [27]): 2.6% | % change of MS signal compared to control sample (kinases in BCWM.1 cells [28]): −1.8% | % change of MS signal compared to control sample (kinases in BCWM.1 cells [29]): −8.6%
